Earlier results on one molecule are cited in patent US9932637B2, “Genetic polymorphisms associated with cardiovascular disorders and drug response, methods of detection and uses thereof” (CELERA CORPORATION, priority 2003, dated 2018).

Structures are written as SMILES.

The data set has as its system subjects with average cholesterol levels. The following applies: AFCAPS/TexCAPS; cited from earlier work.

For `CC[C@H](C)C(=O)O[C@H]1C[C@@H](C)C=C2C=C[C@H](C)[C@H](CC[C@@H]3C[C@@H](O)CC(=O)O3)[C@H]21` [lovastatin], the “LDL-C reduced (average)” value is reported as 25% and the events decreased is reported as 37%.
